From ChEMBL document CHEMBL3627609, “A fragment of the Escherichia coli ClpB heat-shock protein is a micromolar melanocortin 1 receptor agonist” (Bioorg Med Chem Lett, 2015)
Activity calls are given as the source filed them. The calls are words filed in the database; no cut-off is given here.

Assays:
[1] = target: Melanocortin receptor 3 (Mus musculus) (UniProt P33033); experiment: Antagonist activity at mouse melanocortin 3 receptor expressed in HEK293 cells using NDP-MSH as agonist by Schild analysis; format: cell-based
Chain of Melanocortin receptor 3 (Mus musculus) (P33033 whole entry): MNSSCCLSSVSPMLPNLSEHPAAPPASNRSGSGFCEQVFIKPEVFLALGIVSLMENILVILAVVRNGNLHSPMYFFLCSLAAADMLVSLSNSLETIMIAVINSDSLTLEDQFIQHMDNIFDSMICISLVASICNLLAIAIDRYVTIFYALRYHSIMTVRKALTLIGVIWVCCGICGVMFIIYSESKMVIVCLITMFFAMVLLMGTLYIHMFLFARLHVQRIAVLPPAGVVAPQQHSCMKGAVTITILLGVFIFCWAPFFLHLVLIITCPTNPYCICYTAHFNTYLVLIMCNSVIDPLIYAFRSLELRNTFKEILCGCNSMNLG

[2] = target: Melanocortin receptor 4 (Mus musculus, UniProt P56450); experiment: Agonist activity at mouse melanocortin 4 receptor expressed in HEK293 cells by AlphaScreen cAMP assay; format: functional, cell-based
Chain of Melanocortin receptor 4 (P56450 whole entry): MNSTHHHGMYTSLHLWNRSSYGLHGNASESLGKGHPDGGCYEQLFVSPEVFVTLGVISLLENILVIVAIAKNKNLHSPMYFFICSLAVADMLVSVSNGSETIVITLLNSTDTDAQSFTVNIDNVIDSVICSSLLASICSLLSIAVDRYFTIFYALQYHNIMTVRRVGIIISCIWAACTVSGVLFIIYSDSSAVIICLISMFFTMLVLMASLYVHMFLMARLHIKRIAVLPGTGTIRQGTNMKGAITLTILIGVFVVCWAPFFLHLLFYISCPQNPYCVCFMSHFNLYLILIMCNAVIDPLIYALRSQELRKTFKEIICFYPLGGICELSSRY

[3] = target: Melanocortin receptor 3 (Mus musculus) (UniProt P33033); experiment: Agonist activity at mouse melanocortin 3 receptor expressed in HEK293 cells at 100 uM by AlphaScreen cAMP assay; format: functional, cell-based
[4] = target: Melanocortin receptor 5 (Mus musculus) (UniProt P41149); experiment: Agonist activity at mouse melanocortin 5 receptor expressed in HEK293 cells at 100 uM by AlphaScreen cAMP assay; format: functional, cell-based
Chain of Melanocortin receptor 5 (Mus musculus) (P41149 whole entry): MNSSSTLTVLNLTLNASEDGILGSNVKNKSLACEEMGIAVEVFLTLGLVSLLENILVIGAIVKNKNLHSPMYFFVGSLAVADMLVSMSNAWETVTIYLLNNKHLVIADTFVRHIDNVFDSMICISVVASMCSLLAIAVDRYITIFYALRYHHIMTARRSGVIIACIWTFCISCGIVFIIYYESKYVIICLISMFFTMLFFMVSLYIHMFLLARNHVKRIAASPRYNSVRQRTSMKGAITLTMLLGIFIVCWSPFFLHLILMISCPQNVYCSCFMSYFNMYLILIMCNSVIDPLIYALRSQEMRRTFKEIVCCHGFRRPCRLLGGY

[5] = target: Melanocortin receptor 4 (Mus musculus) (UniProt P56450); experiment: Antagonist activity at mouse melanocortin 4 receptor expressed in HEK293 cells using NDP-MSH as agonist by Schild analysis; format: cell-based
Chain of Melanocortin receptor 4 (Mus musculus) (P56450 whole entry): as the sequence (P56450 whole entry) above

[6] = target: Melanocyte-stimulating hormone receptor (Mus musculus, UniProt Q01727); experiment: Agonist activity at mouse melanocortin 1 receptor expressed in HEK293 cells by AlphaScreen cAMP assay; format: functional, cell-based
Chain of Melanocyte-stimulating hormone receptor (Q01727 whole entry): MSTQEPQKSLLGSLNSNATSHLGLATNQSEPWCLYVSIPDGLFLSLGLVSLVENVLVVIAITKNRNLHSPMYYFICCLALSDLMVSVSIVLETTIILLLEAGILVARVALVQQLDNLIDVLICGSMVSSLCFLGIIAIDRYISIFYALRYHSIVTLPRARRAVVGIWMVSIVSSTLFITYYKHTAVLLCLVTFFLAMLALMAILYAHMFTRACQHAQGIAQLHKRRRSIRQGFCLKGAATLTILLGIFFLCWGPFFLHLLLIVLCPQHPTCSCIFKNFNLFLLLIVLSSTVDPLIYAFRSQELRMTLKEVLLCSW

Ac-EIAEVLARWTGIPV-NH2
inhibition [1]: inactive | EC50 [2]: > 100 µM | Activity [3]: 30% | Activity [4]: 50% | inhibition [5]: inactive | EC50 [6]: 41 µM
